Patent US7728012B2, “Carboxamide compounds and their use as calpain inhibitors” (Abbott GmbH & Co. KG, priority 2006, dated 2010)

Assays:
Assay type in all cases: biochemical
[1] = target: T1, calpain-I isolated from human erythrocytes (Homo sapiens, UniProt P07384); assay: Calpain I kinetic fluorescence enzyme inhibition assay; conditions: apparent Ki from IC50 by Cheng-Prussoff; average of 2 to 4 dose-effect plots
T1 construct: calpain-I—isolated from human erythrocytes; purchased Calbiochem 208713; host or cells: human erythrocytes (tissue isolate)
T1 sequence (P07384 1-714): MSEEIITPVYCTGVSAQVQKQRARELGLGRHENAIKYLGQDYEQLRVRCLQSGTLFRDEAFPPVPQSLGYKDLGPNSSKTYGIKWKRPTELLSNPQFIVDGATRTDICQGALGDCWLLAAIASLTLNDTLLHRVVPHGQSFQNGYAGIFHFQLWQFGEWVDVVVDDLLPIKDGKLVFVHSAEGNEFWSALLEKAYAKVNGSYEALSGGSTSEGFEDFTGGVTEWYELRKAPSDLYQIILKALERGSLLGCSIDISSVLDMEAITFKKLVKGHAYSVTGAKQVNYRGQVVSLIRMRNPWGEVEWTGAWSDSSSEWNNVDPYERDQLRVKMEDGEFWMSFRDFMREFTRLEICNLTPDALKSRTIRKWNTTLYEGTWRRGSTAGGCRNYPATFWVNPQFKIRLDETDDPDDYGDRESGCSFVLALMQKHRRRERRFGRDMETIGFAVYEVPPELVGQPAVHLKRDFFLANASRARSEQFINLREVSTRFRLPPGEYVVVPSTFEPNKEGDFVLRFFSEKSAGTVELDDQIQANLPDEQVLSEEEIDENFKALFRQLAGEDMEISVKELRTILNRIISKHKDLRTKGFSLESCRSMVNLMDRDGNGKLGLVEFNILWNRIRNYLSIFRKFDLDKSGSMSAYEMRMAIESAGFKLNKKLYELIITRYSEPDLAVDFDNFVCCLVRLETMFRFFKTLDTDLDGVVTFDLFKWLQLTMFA
T1 sequence (P04632 1-268 partner): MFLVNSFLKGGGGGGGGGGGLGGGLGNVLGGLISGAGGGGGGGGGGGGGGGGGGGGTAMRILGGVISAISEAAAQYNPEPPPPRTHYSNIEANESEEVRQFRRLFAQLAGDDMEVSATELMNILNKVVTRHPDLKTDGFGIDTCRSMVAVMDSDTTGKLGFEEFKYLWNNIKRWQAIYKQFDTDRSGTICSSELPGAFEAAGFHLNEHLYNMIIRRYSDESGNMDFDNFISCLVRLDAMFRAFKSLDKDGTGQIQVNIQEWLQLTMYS

[2] = target: T2, recombinant human cathepsin S (Homo sapiens, UniProt P25774); assay: Cathepsin S kinetic fluorescence enzyme inhibition assay; conditions: selectivity ratio versus calpain I
T2 construct: purchased Calbiochem 219343; host or cells: E. coli
T2 sequence (P25774 115-331): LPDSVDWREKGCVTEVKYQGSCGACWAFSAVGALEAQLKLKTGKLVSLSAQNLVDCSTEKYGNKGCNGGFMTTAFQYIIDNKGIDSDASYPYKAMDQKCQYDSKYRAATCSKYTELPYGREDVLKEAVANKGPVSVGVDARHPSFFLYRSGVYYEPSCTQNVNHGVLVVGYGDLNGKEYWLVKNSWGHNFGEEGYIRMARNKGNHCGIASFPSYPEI
How it was run: (§1)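 cat B 0.25 nM + Z-Phe-Arg-AMC 100 μM; cat L 1 nM + Z-Phe-Arg-AMC 2 μM; cat S 0.5 nM (E. coli-expressed) + Z-Val-Val-Arg-AMC 20 μM. 50 mM MES pH 6.0, 2.5 mM L-Cys, RT. Ex 390/em 460, kinetic; Ki app = Cheng-Prusoff from IC50, mean of 2–4 curves.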

[3] = target: T3, cathepsin B isolated from human liver (Homo sapiens, UniProt P07858); assay: Cathepsin B kinetic fluorescence enzyme inhibition assay; conditions: selectivity ratio versus calpain I
T3 construct: cathepsin B—isolated from human liver; purchased Calbiochem 219362; host or cells: human liver (tissue isolate)
How it was run: as §1

[4] = target: T4, cathepsin K activated from recombinant human procathepsin K (Homo sapiens, UniProt P43235); assay: Cathepsin K kinetic fluorescence enzyme inhibition assay; conditions: selectivity ratio versus calpain I
T4 construct: purchased Calbiochem 342001; host or cells: E. coli
T4 sequence (P43235 115-329): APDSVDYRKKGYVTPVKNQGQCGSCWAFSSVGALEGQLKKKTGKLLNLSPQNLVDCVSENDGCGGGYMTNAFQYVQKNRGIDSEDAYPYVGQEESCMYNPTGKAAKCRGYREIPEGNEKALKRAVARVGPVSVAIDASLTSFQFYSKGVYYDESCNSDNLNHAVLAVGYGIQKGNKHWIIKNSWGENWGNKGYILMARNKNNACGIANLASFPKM

[5] = target: T5, cathepsin L isolated from human liver (Homo sapiens, UniProt P07711); assay: Cathepsin L kinetic fluorescence enzyme inhibition assay; conditions: selectivity ratio versus calpain I
T5 construct: cathepsin L—isolated from human liver; purchased Calbiochem 219402; host or cells: human liver (tissue isolate)
T5 sequence (P07711 114-333): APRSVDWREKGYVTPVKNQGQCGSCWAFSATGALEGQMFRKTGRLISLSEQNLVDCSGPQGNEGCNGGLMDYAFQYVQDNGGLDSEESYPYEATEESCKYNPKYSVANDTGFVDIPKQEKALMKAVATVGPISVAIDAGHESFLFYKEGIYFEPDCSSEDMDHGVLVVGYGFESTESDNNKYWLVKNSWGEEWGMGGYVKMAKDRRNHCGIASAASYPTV
How it was run: as §1

Row | Compound | Ki [1] | Sel cat. S (Ki(cathepsin S)/Ki(calpain) ratio) [2] | Sel cat. B (Ki(cathepsin B)/Ki(calpain) ratio) [3] | Sel cat. K (Ki(cathepsin K)/Ki(calpain) ratio) [4] | Sel cat. L (Ki(cathepsin L)/Ki(calpain) ratio) [5]
1 | NC(=O)C(=O)C(Cc1ccccc1)NC(=O)c1cccnc1-n1ccc(-c2cccc3c2OC(F)(F)O3)n1 (stereo not shown) [Example 119, N-[3-Amino-2,3-dioxo-1-(phenylmethyl)propyl]-2-[3-(2,2-difluoro-1,3-benzodioxol-4-yl)-1H-pyrazol-1-yl]pyridine-3-carboxamide] | ≤ 40 nM | ++ (Ki(cathepsin S)/Ki(calpain) ratio of ≧100) | ++ (Ki(cathepsin B)/Ki(calpain) ratio of ≧30) | ++ (Ki(cathepsin K)/Ki(calpain) ratio of ≧30) | ++ (Ki(cathepsin L)/Ki(calpain) ratio of ≧50)
2 | NC(=O)C(=O)C(Cc1ccccc1)NC(=O)c1cccnc1-n1ccc(-c2c(F)ccc(Cl)c2Cl)n1 (stereo not shown) [Example 120, N-[3-Amino-2,3-dioxo-1-(phenylmethyl)propyl]-2-[3-(2,3-dichloro-6-fluorophenyl)-1H-pyrazol-1-yl]pyridine-3-carboxamide] | ≤ 40 nM | ++ (Ki(cathepsin S)/Ki(calpain) ratio of ≧100) | ++ (Ki(cathepsin B)/Ki(calpain) ratio of ≧30) | ++ (Ki(cathepsin K)/Ki(calpain) ratio of ≧30) | + (30≦Ki(cathepsin L)/Ki(calpain)<50)
3 | COc1c(C)cc(C)cc1-c1ccn(-c2ncccc2C(=O)NC(Cc2ccccc2)C(=O)C(N)=O)n1 (stereo not shown) [Example 121, N-[3-Amino-2,3-dioxo-1-(phenylmethyl)propyl]-2-{3-[3,5-dimethyl-2-(methyloxy)phenyl]-1H-pyrazol-1-yl}pyridine-3-carboxamide] | ≤ 40 nM | ++ (Ki(cathepsin S)/Ki(calpain) ratio of ≧100) | ++ (Ki(cathepsin B)/Ki(calpain) ratio of ≧30) | ++ (Ki(cathepsin K)/Ki(calpain) ratio of ≧30) | ++ (Ki(cathepsin L)/Ki(calpain) ratio of ≧50)
4 | NC(=O)C(=O)C(Cc1ccc(F)cc1)NC(=O)c1cccnc1-n1ccc(-c2ccccc2)n1 (stereo not shown) [Example 123, N-{3-Amino-1-[(4-fluorophenyl)methyl]-2,3-dioxopropyl}-2-(3-phenyl-1H-pyrazol-1-yl)pyridine-3-carboxamide] | ≤ 40 nM | ++ (Ki(cathepsin S)/Ki(calpain) ratio of ≧100) | ++ (Ki(cathepsin B)/Ki(calpain) ratio of ≧30) | ++ (Ki(cathepsin K)/Ki(calpain) ratio of ≧30) | ++ (Ki(cathepsin L)/Ki(calpain) ratio of ≧50)
5 | NC(=O)C(=O)C(Cc1ccccc1)NC(=O)c1cccnc1-n1ccc(-c2ccccc2OC(F)(F)F)n1 (stereo not shown) [Example 124, N-[3-Amino-2,3-dioxo-1-(phenylmethyl)propyl]-2-(3-{2-[(trifluoromethyl)oxy]phenyl}-1H-pyrazol-1-yl)pyridine-3-carboxamide] | ≤ 40 nM | ++ (Ki(cathepsin S)/Ki(calpain) ratio of ≧100) | ++ (Ki(cathepsin B)/Ki(calpain) ratio of ≧30) | ++ (Ki(cathepsin K)/Ki(calpain) ratio of ≧30) | ++ (Ki(cathepsin L)/Ki(calpain) ratio of ≧50)
6 | COc1cc(F)ccc1-c1ccn(-c2ncccc2C(=O)NC(Cc2ccccc2)C(=O)C(N)=O)n1 (stereo not shown) [Example 125, N-[3-Amino-2,3-dioxo-1-(phenylmethyl)propyl]-2-{3-[4-fluoro-2-(methyloxy)phenyl]-1H-pyrazol-1-yl}pyridine-3-carboxamide] | ≤ 40 nM | ++ (Ki(cathepsin S)/Ki(calpain) ratio of ≧100) | ++ (Ki(cathepsin B)/Ki(calpain) ratio of ≧30) | ++ (Ki(cathepsin K)/Ki(calpain) ratio of ≧30) | ++ (Ki(cathepsin L)/Ki(calpain) ratio of ≧50)
7 | NC(=O)C(=O)C(Cc1ccc(OCc2ccccc2)cc1)NC(=O)c1cccnc1-n1ccc(-c2ccccc2)n1 (stereo not shown) [Example 127, N-[3-Amino-2,3-dioxo-1-({4-[(phenylmethyl)oxy]phenyl}methyl)propyl]-2-(3-phenyl-1H-pyrazol-1-yl)pyridine-3-carboxamide] | ≤ 40 nM | ++ (Ki(cathepsin S)/Ki(calpain) ratio of ≧100) | ++ (Ki(cathepsin B)/Ki(calpain) ratio of ≧30) | ++ (Ki(cathepsin K)/Ki(calpain) ratio of ≧30) | ++ (Ki(cathepsin L)/Ki(calpain) ratio of ≧50)
8 | COc1ccc(F)cc1-c1ccn(-c2ncccc2C(=O)NC(Cc2ccccc2)C(=O)C(N)=O)n1 (stereo not shown) [Example 130, N-[3-Amino-2,3-dioxo-1-(phenylmethyl)propyl]-2-{3-[5-fluoro-2-(methyloxy)phenyl]-1H-pyrazol-1-yl}pyridine-3-carboxamide] | ≤ 40 nM | ++ (Ki(cathepsin S)/Ki(calpain) ratio of ≧100) | ++ (Ki(cathepsin B)/Ki(calpain) ratio of ≧30) | ++ (Ki(cathepsin K)/Ki(calpain) ratio of ≧30) | ++ (Ki(cathepsin L)/Ki(calpain) ratio of ≧50)
9 | COc1ccc(Cl)cc1-c1ccn(-c2ncccc2C(=O)NC(Cc2ccccc2)C(=O)C(N)=O)n1 (stereo not shown) [Example 131, N-[3-Amino-2,3-dioxo-1-(phenylmethyl)propyl]-2-{3-[5-chloro-2-(methyloxy)phenyl]-1H-pyrazol-1-yl}pyridine-3-carboxamide] | ≤ 40 nM | ++ (Ki(cathepsin S)/Ki(calpain) ratio of ≧100) | ++ (Ki(cathepsin B)/Ki(calpain) ratio of ≧30) | ++ (Ki(cathepsin K)/Ki(calpain) ratio of ≧30) | ++ (Ki(cathepsin L)/Ki(calpain) ratio of ≧50)
10 | NC(=O)C(=O)C(Cc1ccc(OC(F)(F)F)cc1)NC(=O)c1cccnc1-n1ccc(-c2ccc(F)cc2)n1 (stereo not shown) [Example 132, N-[3-Amino-2,3-dioxo-1-({4-[(trifluoromethyl)oxy]phenyl}methyl)propyl]-2-[3-(4-fluorophenyl)-1H-pyrazol-1-yl]pyridine-3-carboxamide] | 40 to 100 nM | ++ (Ki(cathepsin S)/Ki(calpain) ratio of ≧100) | + (10≦Ki(cathepsin B)/Ki(calpain)<30) | ++ (Ki(cathepsin K)/Ki(calpain) ratio of ≧30) | ++ (Ki(cathepsin L)/Ki(calpain) ratio of ≧50)
11 | NC(=O)C(=O)C(Cc1ccc(OC(F)(F)F)cc1)NC(=O)c1cccnc1-n1ccc(-c2ccccc2)n1 (stereo not shown) [Example 133, N-[3-Amino-2,3-dioxo-1-({4-[(trifluoromethyl)oxy]phenyl}methyl)propyl]-2-(3-phenyl-1H-pyrazol-1-yl)pyridine-3-carboxamide] | 40 to 100 nM | ++ (Ki(cathepsin S)/Ki(calpain) ratio of ≧100) | ++ (Ki(cathepsin B)/Ki(calpain) ratio of ≧30) | ++ (Ki(cathepsin K)/Ki(calpain) ratio of ≧30) | ++ (Ki(cathepsin L)/Ki(calpain) ratio of ≧50)
